Biological target: T1, TLR9 (Homo sapiens, UniProt Q9NR96)
T1 construct: expressed in transfected cells; host or cells: HEK293
T1 sequence (Q9NR96 26-1032): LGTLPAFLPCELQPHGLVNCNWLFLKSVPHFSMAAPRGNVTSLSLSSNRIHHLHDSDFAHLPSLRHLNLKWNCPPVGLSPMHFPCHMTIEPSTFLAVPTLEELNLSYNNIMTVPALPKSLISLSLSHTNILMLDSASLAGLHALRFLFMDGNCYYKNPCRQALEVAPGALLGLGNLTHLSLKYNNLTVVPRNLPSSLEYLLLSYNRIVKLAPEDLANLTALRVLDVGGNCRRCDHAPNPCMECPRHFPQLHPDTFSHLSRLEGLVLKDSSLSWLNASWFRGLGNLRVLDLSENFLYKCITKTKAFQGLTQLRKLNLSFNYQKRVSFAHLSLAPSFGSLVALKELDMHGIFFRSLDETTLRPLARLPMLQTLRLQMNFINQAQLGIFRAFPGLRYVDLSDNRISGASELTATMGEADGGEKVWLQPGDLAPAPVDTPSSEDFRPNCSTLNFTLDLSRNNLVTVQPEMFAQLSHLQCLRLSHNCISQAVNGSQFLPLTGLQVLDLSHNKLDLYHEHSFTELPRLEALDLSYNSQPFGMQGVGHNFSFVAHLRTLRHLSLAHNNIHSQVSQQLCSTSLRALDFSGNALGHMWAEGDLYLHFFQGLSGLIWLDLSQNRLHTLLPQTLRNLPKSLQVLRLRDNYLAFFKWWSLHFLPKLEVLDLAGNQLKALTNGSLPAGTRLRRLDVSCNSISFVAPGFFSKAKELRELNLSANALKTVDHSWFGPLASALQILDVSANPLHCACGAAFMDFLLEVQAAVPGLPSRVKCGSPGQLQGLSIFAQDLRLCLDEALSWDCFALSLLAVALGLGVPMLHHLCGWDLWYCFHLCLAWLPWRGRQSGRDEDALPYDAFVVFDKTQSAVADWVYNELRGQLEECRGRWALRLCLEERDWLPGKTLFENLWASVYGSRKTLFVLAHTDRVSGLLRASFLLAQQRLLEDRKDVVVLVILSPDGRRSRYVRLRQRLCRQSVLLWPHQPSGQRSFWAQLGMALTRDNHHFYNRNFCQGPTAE
Experiment: TLR9 screening of (+)-morphinan library, SEAP reporter in HEK293 cells expressing TLR9
Assay type: cell-based
Details: activator ODN2006; for OD 650 nm (mean ± sd): control (no activator) 0.14, activator 1.42 OD; for inhibition at 0.1 µM: HEK293, read-out: % Inhibition (mean), 100 nM; for inhibition at 10 µM: HEK293, read-out: % Inhibition (mean), 10 μM
Experimental: The secreted alkaline phosphatase reporter is under the control of a promoter inducible by the transcription factor NF-κB. A library of more than 100 (+)-morphinan compounds was screened for TLR9 antagonist activity by assessing NF-κB activation in the HEK293 cells expressing TLR9. This reporter gene allows the monitoring of signaling through the TLR, based on the activation of NF-κB.
In a 96-well plate (200 μL total volume) containing 50,000 cells/well, 20 μL of each sample compound was added to wells, in triplicate, followed by a 30 minute incubation at 37° C. and 5% CO2. After the 30 minutes of incubation, 20 μL of the activator ODN2006 was added to each well. The media added to the wells was designed for the detection of NF-κB induced SEAP expression. After a 16-20 hr incubation period, the OD at 650 nm was read on a Beckman Coulter AD 340C Absorbance Detector. All compounds were tested at concentrations of 10 μM and 100 nM.

Row | SMILES | OD 650 nm (mean ± sd) (100 nM) | OD 650 nm (mean ± sd) (10 μM) | inhibition at 0.1 µM | inhibition at 10 µM | % Inhibition (mean) (100 nM, 0.1 µM) | % Inhibition (mean) (10 μM)
1 | COc1ccc2c(c1O)[C@@]13CCN(CC4CCC4)[C@@H](C2)C1CCC(=O)C3 (stereo partly shown) [Compound I-29] | 1.06 ± 0.03 OD | 0.11 ± 0.00 OD | 25% | 92% | – | –
2 | COC1=C[C@]2(O)[C@@H]3Cc4ccc(OC)c(O)c4[C@]2(CCN3C)CC1=O [Compound I-30] | 1.25 ± 0.11 OD | 0.94 ± 0.05 OD | 12% | 33% | – | –
3 | COc1cc(Br)c2c3c1O[C@@H]1C(=O)CCC4C(C2)NCC[C@]341 (stereo partly shown) [II-1] | 0.97 ± 0.04 OD | 0.19 ± −0.2 OD | 32% | 86% | – | –
4 | C=CCN1CC[C@@]23c4c5c(-c6ccoc6)cc(OC)c4O[C@@H]2C(=O)CCC3C1C5 (stereo partly shown) [II-2] | 1.23 ± 0.05 OD | 0.12 ± 0.01 OD | 13% | 92% | – | –
5 | COc1cc(C(C)C)c2c3c1O[C@@H]1C(=O)CCC4C(C2)N(CC2CC2)CC[C@]341 (stereo partly shown) [II-4] | 1.18 ± 0.06 OD | 0.11 ± 0.01 OD | 17% | 92% | – | –
6 | COc1ccc2c3c1OC1C(O)CC[C@@H]4[C@H](C2)N(C)CC[C@@]314 (stereo partly shown) [II-7] | 1.32 ± 0.08 OD | 0.13 ± 0.02 OD | 7% | 91% | – | –
7 | COc1ccc2c3c1OC1C(OC(C)=O)CCC4C(C2)N(C)CC[C@]341 (stereo partly shown) [II-8] | 1.15 ± 0.07 OD | 1.33 ± 0.06 OD | 19% | 7% | – | –
8 | COc1ccc2c3c1O[C@@H]1C(NC(C)=O)CC[C@@H]4[C@H](C2)N(C)CC[C@@]314 (stereo partly shown) [II-9] | 1.25 ± 0.09 OD | 1.00 ± 0.02 OD | 12% | 29% | – | –
9 | COc1ccc2c3c1O[C@@H]1C(NCCO)CC[C@@H]4[C@H](C2)N(C)CC[C@@]314 (stereo partly shown) [II-10] | 0.24 ± 0.02 OD | 0.10 ± 0.01 OD | 83% | 93% | – | –
10 | COc1cc(Br)c2c3c1OC1C(=O)CC[C@@H]4[C@H](C2)N(C)CC[C@@]314 (stereo partly shown) [II-11] | 1.22 ± 0.10 OD | 0.44 ± 0.05 OD | 14% | 69% | – | –
11 | COc1ccc2c3c1O[C@@H]1C(=O)CC[C@@H]4[C@H](C2)NCC[C@@]314 [II-12] | 1.12 ± 0.08 OD | 0.81 ± 0.03 OD | 21% | 43% | – | –
12 | COC(=O)/C=C/c1cc(OC)c(O)c2c1CC1C3CCC(=O)C[C@@]23CCN1CC1CC1 (stereo partly shown) [II-14] | 1.18 ± 0.05 OD | 0.13 ± 0.00 OD | 17% | 91% | – | –
13 | COC(=O)/C=C/c1cc(OC)c2c3c1CC1C4CCC(=O)[C@@H](O2)[C@@]34CCN1CC1CC1 (stereo partly shown) [II-15] | 1.22 ± 0.06 OD | 0.23 ± 0.03 OD | 14% | 84% | – | –
14 | C=CCN1CC[C@@]23c4c5c(Br)cc(OC)c4O[C@@H]2C(=O)CCC3C1C5 (stereo partly shown) [II-16] | 1.43 ± 0.01 OD | 1.24 ± 0.11 OD | -1% | 13% | – | –
15 | COc1ccc2c3c1O[C@@H]1C(O)CC[C@@H]4[C@H](C2)N(CC2CC2)CC[C@@]314 (stereo partly shown) [II-17] | 1.13 ± 0.10 OD | 0.39 ± 0.01 OD | 21% | 72% | – | –
16 | C=CCN1CC[C@@]23c4c5ccc(OC)c4OC2C(O)CCC3C1C5 (stereo partly shown) [II-19] | 1.19 ± 0.03 OD | 0.15 ± 0.01 OD | 16% | 90% | – | –
17 | C=CCN1CC[C@@]23c4c5ccc(OC)c4O[C@@H]2C(NC(C)=O)CC[C@@H]3[C@@H]1C5 (stereo partly shown) [II-20] | 1.29 ± 0.02 OD | 1.07 ± 0.04 OD | 9% | 25% | – | –
18 | C=CCN1CC[C@@]23c4c5ccc(OC)c4O[C@@H]2C(=C)CC[C@@H]3[C@@H]1C5 [II-22] | 1.31 ± 0.19 OD | 0.75 ± 0.06 OD | 8% | 47% | – | –
19 | COc1cc(Br)c2c3c1O[C@@H]1C(=O)CCC4C(C2)N(CC2CC2)CC[C@]341 (stereo partly shown) [II-23] | 1.16 ± 0.01 OD | 0.53 ± 0.05 OD | 18% | 63% | – | –
20 | COc1cc(-c2ccoc2)c2c3c1O[C@@H]1C(=O)CCC4C(C2)N(CC2CC2)CC[C@]341 (stereo partly shown) [II-26] | 1.08 ± 0.06 OD | 0.12 ± 0.00 OD | 24% | 92% | – | –
21 | COc1ccc2c3c1O[C@@H]1C(O)CC[C@@H]4[C@H](C2)N(CC2CCC2)CC[C@@]314 (stereo partly shown) [II-28] | 1.32 ± 0.08 OD | 0.87 ± 0.03 OD | 7% | 39% | – | –
22 | COc1ccc2c3c1O[C@@H]1C(=O)CC[C@@H]4[C@H](C2)N(Cc2ccccc2)CC[C@@]314 [II-29] | 1.36 ± 0.17 OD | 0.33 ± 0.03 OD | 4% | 77% | – | –
23 | COc1ccc2c3c1O[C@@H]1C(=O)CC[C@@H]4[C@H](C2)N(C(=O)C2CC2)CC[C@@]314 [II-30] | 1.34 ± 0.11 OD | 1.13 ± 0.06 OD | – | – | 5% | 20%
24 | COc1ccc2c3c1O[C@@H]1C(=O)CC[C@@H]4[C@H](C2)N(C(C)=O)CC[C@@]314 [II-31] | 1.40 ± 0.04 OD | 1.37 ± 0.11 OD | 2% | 3% | – | –
25 | COc1ccc2c3c1O[C@@H]1C(=O)CC[C@@H]4[C@H](C2)N(C(=O)c2ccccc2)CC[C@@]314 [II-33] | 1.35 ± 0.15 OD | 1.37 ± 0.03 OD | 5% | 3% | – | –

From patent US10363251B2, “(+)-morphinans as antagonists of toll-like receptor 9 and therapeutic uses thereof” (Mallinckrodt LLC, priority 2009, dated 2019)
